Patent EP2816108A1, “Transformed fungus with vitamin K dependent activity” (priority 2013, dated 2014)

Experiments:
[1] = tested on: Aspergillus nidulans strain YR 23.5; assay: Vitamin K uptake in liquid cultures, viable versus heat-inactivated mycelium; format: cell-based; details: for Uptake (vitamin K / DW): active minus inactive
Description: Solid Media. Minimal media plates including vitamin K (vitamin K1, Fluka, 99%) were prepared. On top of the agar medium, sterile cellophane was placed to inhibit direct contact between the media and fungal cells. Spores of strain YR23.5 were plated in a concentration of ca. 10E+5 per plate. After 3 days of growth, harvesting was done by scraping off the mycelium from cellophane. Then the mycelium was frozen and pulverized in liquid nitrogen. The powder was subsequently lyophilised and sent for vitamin K analysis to LUFA-ITL (Landwirtschaftliche Untersuchungs- und Forschungsanstalt Institut für Tiergesundheit u Lebensmittelqualität GmbH, Kiel, Germany). Liquid media. The strain YR23.5 was pre-cultivated for 48 hours in 2 x 250 ml of liquid minimal media at 37°C, 180 rpm in Erlenmeyer flasks. Mycelium was harvested by filtration, washed and re-suspended in sterile minimal medium and separated into four equal aliquots of roughly 250 mg wet weight (corresponding to roughly 50 mg dry weight). Culture volume was set to 30 ml. Two of these cultures received different vitamin K amounts, final concentration: 0.5 mg/mL and 0.05 mg/mL vitamin K (Konakion, micelles suspension, Roche, 10 mg/mL) and were grown for further 8 hours. Mock controls were grown in parallel for 8 hours without receiving vitamin K. After the growth phase the fungal cells were inactivated by boiling in the microwave oven (3 x 5 min at max. energy level), and subsequently vitamin K was added to the mock controls (final concentration, 0.5 and 0.05 mg/mL vitamin K). The inactivated cultures were further incubated in the rotary shaker for 30 minutes. All cultures were harvested at the same time point. Harvested biomass was washed, frozen and ground in liquid nitrogen, lyophilised and sent for analysis to LUFA-ITL (Landwirtschaftliche Untersuchungs- und Forschungsanstalt Institut für Tiergesundheit u Lebensmittelqualität GmbH, Kiel, Germany).
The vitamin uptake ability of A.nidulans was studied with growth tests in Petri dishes. In addition, vit.K uptake and unspecific resorption of vit.K to the fungal cell wall was analyzed in liquid cultures. According to growth tests in Petri dishes, 752 µg of vitamin K was quantified in 100 mg DW (dry weight) of lyophilized fungal mycelium. However, due to the set-up of this experiment it remains unclear if the vitamin K is either attached to the cell wall or actively taken up into the fungal cell. To clarify this, a second growth test comparing viable and heat-inactivated mycelium was performed. […] The maximal amount of vit.K unspecifically attached to the cell wall is approximately 20 µg per 100 mg (dry weight) of fungal mycelium. The majority of vitamin K was found in viable cells. The viable mycelium was able to take up approximately 8% of the vitamin K supplied through the culture medium (Hill et al.), more precisely 1,14 mg / 100 mg mycelium from the […] vit.K supplied in total (Table 2). Table 2: Vitamin K1 updake ability of Aspergillus nidulans strain YR 23.5. Vitamin K was added to liquid cultures, the final concentration as indicated. Fungal mycelium was inactivated by boiling in a microwave oven. Values which were obtained with inactivated fungal cell mass indicate the unspecific association of vitamin K to the fungal mycelium.

[2] = tested on: Aspergillus nidulans strain YR23.5; assay: Vitamin K growth test on solid media (Petri dishes), vitamin K quantified in lyophilised mycelium; format: cell-based; details: in 100 mg DW (dry weight) of lyophilized fungal mycelium; growth tests in Petri dishes, 3 days
Description: Solid Media. Minimal media plates including vitamin K (vitamin K1, Fluka, 99%) were prepared. On top of the agar medium, sterile cellophane was placed to inhibit direct contact between the media and fungal cells. Spores of strain YR23.5 were plated in a concentration of ca. 10E+5 per plate. After 3 days of growth, harvesting was done by scraping off the mycelium from cellophane. Then the mycelium was frozen and pulverized in liquid nitrogen. The powder was subsequently lyophilised and sent for vitamin K analysis to LUFA-ITL (Landwirtschaftliche Untersuchungs- und Forschungsanstalt Institut für Tiergesundheit u Lebensmittelqualität GmbH, Kiel, Germany). Liquid media. The strain YR23.5 was pre-cultivated for 48 hours in 2 x 250 ml of liquid minimal media at 37°C, 180 rpm in Erlenmeyer flasks. Mycelium was harvested by filtration, washed and re-suspended in sterile minimal medium and separated into four equal aliquots of roughly 250 mg wet weight (corresponding to roughly 50 mg dry weight). Culture volume was set to 30 ml. […]
The vitamin uptake ability of A.nidulans was studied with growth tests in Petri dishes. In addition, vit.K uptake and unspecific resorption of vit.K to the fungal cell wall was analyzed in liquid cultures. According to growth tests in Petri dishes, 752 µg of vitamin K was quantified in 100 mg DW (dry weight) of lyophilized fungal mycelium. […]

Which results are given for CC1=C(C/C=C(\C)CCC[C@H](C)CCC[C@H](C)CCCC(C)C)C(=O)c2ccccc2C1=O [vitamin K, vitamin K1]?
Uptake (vitamin K / DW) ([1]; fungal cell mass active, vitamin K added 50 µg/ml): 169,1 µg/100 mg; Absolute quantities (vitamin K / DW) ([1]; fungal cell mass active, vitamin K added 50 µg/ml, liquid culture, 8 hours): 183,0 µg/100 mg; Uptake (vitamin K / DW) ([1]; fungal cell mass active, vitamin K added 500 µg/ml): 1122,1 µg/100 mg; Absolute quantities (vitamin K / DW) ([1]; fungal cell mass active, vitamin K added 500 µg/ml, liquid culture, 8 hours, DW = fungal mycelium (dry weight)): 1140,0 µg/100 mg; Absolute quantities (vitamin K / DW) ([1]; fungal cell mass inactive (boiled in microwave oven), vitamin K added 50 µg/ml, unspecific association with mycelium): 13,9 µg/100 mg; Absolute quantities (vitamin K / DW) ([1]; fungal cell mass inactive (boiled in microwave oven), vitamin K added 500 µg/ml, unspecific association with mycelium): 17,9 µg/100 mg; maximal amount of vit.K unspecifically attached to the cell wall ([1]; per 100 mg (dry weight) of fungal mycelium, inactivated cultures): approximately 20 µg per 100 mg; vitamin K taken up of the vitamin K supplied through the culture medium ([1]; viable mycelium): approximately 8%; vitamin K taken up by viable mycelium ([1]; viable mycelium, from the 50 mg vit.K supplied in total): 1,14 mg / 100 mg mycelium; vitamin K quantified in lyophilized fungal mycelium [2]: 752 µg
